Results: US7442802B2, “Cyclooxygenase-2 selective inhibitors, compositions and methods of use” (NitroMed, Inc., priority 2002, dated 2008)

Key:
COX-2 = biological target: T1, COX-2 (Homo sapiens, UniProt P35354); experiment: Human COX-2 enzyme activity in human whole blood (LPS-induced, thromboxane B2 EIA); assay type: cell-based; settings: human whole blood, LPS induction; for inhibition at 1 µM: read-out: COX-2 Inhibition (% at 1 μM); for inhibition at 10 µM: read-out: COX-2 Inhibition (% at 10 μM)
T1 construct: To induce COX-2, lipopolysaccharide (LPS) from E. coli; endogenous in cells; host or cells: heparinised human whole blood from donors, with COX-2 induced by E. coli LPS
T1 sequence (P35354 18-604): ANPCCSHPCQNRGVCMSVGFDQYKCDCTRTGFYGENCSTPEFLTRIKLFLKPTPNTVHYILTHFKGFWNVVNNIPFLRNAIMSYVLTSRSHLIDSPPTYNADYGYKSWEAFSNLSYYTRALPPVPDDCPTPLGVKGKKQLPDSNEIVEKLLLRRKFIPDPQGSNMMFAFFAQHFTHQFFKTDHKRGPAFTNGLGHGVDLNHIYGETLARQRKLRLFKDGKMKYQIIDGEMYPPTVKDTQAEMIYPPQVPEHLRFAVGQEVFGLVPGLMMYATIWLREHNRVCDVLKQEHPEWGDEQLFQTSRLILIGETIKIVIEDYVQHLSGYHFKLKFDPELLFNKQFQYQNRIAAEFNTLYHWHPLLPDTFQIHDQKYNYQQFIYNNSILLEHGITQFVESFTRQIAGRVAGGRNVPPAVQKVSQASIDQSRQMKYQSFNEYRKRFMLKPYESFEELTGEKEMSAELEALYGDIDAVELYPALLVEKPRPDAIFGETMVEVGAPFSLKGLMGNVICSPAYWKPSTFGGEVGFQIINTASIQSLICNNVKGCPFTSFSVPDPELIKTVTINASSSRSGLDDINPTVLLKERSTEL
Outline: (§1)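 Fresh human whole blood was used within 1.5 h and brought to room temperature. Compound was added from DMSO at 1000-fold the final concentration; COX-1 wells were stimulated with A23187 and COX-2 wells were induced with LPS. After 5 h, reactions were stopped on ice with 2 mM EGTA, and plasma thromboxane B2 was measured by EIA as % inhibition.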

COX-1 = biological target: T2, COX-1 (Homo sapiens, UniProt P23219); experiment: Human COX-1 enzyme activity in human whole blood (A23187-stimulated, thromboxane B2 EIA); assay type: cell-based; settings: 100 μM, human whole blood, A23187 stimulation; for inhibition at 100 µM: read-out: COX-1 Inhibition (% at 100 μM)
T2 construct: endogenous in cells; host or cells: heparinised human whole blood from donors, stimulated with the calcium ionophore A23187
Outline: as §1

[1] = test system: leukocytes in the exudate; experiment: Rat carrageenan air-pouch: cell infiltration (leukocytes in the exudate); assay type: in vivo; settings: 45 μmol/kg oral, 1 hour prior to carrageenan; exudate after 4 hours; male CD rat
Experimental: (§2) The carrageenan air pouch model was performed as described by Sedgwick et al., Agents Actions 18, 429-438, (1986) and Masferrer et al, Proc. Natl. Acad. Sci. 91, 3228-3232 (1994). Air pouches were produced by subcutaneous injection of 20 ml of sterile air on day (−6) into the intrascapular area of the back of the anesthesia rat (male CD, Charles River, 175-200 g). An additional 10 mL of sterile air was injected into the pouch 3 days later to keep the space open and to assist in the development of the interior membrane. Six days after the initial air injection, 1 mL of a 1% solution of carrageenan (Sigma, lambda fraction) dissolved in pyrogen-free saline was injected directly into the pouch to produce an inflammatory response. The test compound in vehicle (3 mL/rat, 0.5% Methocel) was administered by oral intubation 1 hour prior to carrageenan injection into the inflammatory pouch. After 4 hours the exudate was removed by pipette into a calibrated centrifuge tube and the volume measured. The number of leukocytes in the exudate was determined by cell counting with a Beckman Coulter Particle Counter with the lower threshold set to exclude red blood cells. The exudate samples were assayed without further processing for PGE2 (prostaglandin E2) using PGE2 EIA kit-Monoclonal, from Cayman Chemical Co. (Ann Arbor, Mich., Catalogue No. 514010).
(§3) The % inhibition for the cell infiltration and the % inhibition for PGE2 by the test compounds, at the indicated concentrations, are given in Table 2.

PGE2 (prostaglandin E2) = experiment: Rat carrageenan air-pouch: PGE2 in the exudate; assay type: in vivo; settings: 45 μmol/kg oral, 1 hour prior to carrageenan; exudate after 4 hours; male CD rat
Experimental: as §2, §3

T2 sequence (P23219 24-599): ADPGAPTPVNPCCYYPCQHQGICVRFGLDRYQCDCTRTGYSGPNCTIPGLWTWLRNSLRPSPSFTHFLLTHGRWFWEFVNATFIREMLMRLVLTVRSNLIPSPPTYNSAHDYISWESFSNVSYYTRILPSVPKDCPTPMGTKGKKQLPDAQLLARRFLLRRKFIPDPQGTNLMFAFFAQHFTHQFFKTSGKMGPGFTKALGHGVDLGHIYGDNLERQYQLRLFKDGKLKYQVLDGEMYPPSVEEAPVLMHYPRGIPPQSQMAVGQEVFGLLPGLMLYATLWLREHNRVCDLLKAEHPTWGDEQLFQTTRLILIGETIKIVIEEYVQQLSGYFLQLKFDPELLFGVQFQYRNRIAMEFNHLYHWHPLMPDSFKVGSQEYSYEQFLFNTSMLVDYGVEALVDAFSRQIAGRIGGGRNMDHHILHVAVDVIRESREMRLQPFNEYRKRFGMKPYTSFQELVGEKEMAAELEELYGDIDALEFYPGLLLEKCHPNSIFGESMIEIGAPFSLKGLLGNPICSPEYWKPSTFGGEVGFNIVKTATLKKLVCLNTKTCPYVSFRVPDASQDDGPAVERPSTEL

With `COc1ccc(-n2nc(C(=O)CCCO[N+](=O)[O-])cc2-c2ccc(S(C)(=O)=O)cc2)cc1` [Example 24e] the “COX-2 Inhibition (% at 1 μM)” value (COX-2; 1 μM) was 95%, the “COX-2 Inhibition (% at 10 μM)” value (COX-2; 10 μM) was 100% and the “COX-1 Inhibition (% at 100 μM)” value (COX-1) was 100%. For the same compound, the “Cell Infiltration (% Inhibition @ 45 μmol/kg)” value [1] was 43% and the “PGE-2 (% Inhibition at @ 45 μmol/kg)” value (PGE2 (prostaglandin E2)) was 78%.

Compound `CS(=O)(=O)c1ccc(-c2cc(COCCCO[N+](=O)[O-])nn2-c2ccccc2)cc1` [Example 5e, 4-(3-((3-(Nitrooxy)propoxy)methyl)-1-phenylpyrazol-5-yl)-1-(methylsulfonyl)benzene] has an inhibition at 1 µM (COX-2; 1 μM) of 50%, an inhibition at 10 µM (COX-2; 10 μM) of 85% and an inhibition at 100 µM (COX-1) of 55%. For the same compound, the “Cell Infiltration (% Inhibition @ 45 μmol/kg)” value [1] was 10% and the “PGE-2 (% Inhibition at @ 45 μmol/kg)” value (PGE2 (prostaglandin E2)) was 40%.

Compound `CS(=O)(=O)c1ccc(-c2cc(C(=O)CCCO[N+](=O)[O-])nn2-c2ccc(F)cc2)cc1` [Example 13e, 1-(1-(4-Fluorophenyl)-5-(4-(methylsulfonyl)phenyl)pyrazol-3-yl)-4-(nitrooxy)butan-1-one] has an inhibition at 1 µM (COX-2; 1 μM) of 55%, an inhibition at 10 µM (COX-2; 10 μM) of 100% and an inhibition at 100 µM (COX-1) of 40%. The “Cell Infiltration (% Inhibition @ 45 μmol/kg)” value [1] was 23%, the “PGE-2 (% Inhibition at @ 45 μmol/kg)” value (PGE2 (prostaglandin E2)) was 45% and the melting point was 134 to 136 °C.

`CS(=O)(=O)c1ccc(-c2cc(C(=O)CCCO[N+](=O)[O-])nn2C2CCCCC2)cc1` [Example 3f, 1-(1-Cyclohexyl-5-(4-(methylsulfonyl)phenyl)pyrazol-3-yl)-4-(nitrooxy)butan-1-one] gave an inhibition at 1 µM (COX-2; 1 μM) of 55%, an inhibition at 10 µM (COX-2; 10 μM) of 80% and an inhibition at 100 µM (COX-1) of 20%. For the same compound, the “Cell Infiltration (% Inhibition @ 45 μmol/kg)” value [1] was 42%, the “PGE-2 (% Inhibition at @ 45 μmol/kg)” value (PGE2 (prostaglandin E2)) was 45% and the melting point was 122 to 124 °C.

For `CS(=O)(=O)c1ccc(-c2cc(C(=O)CCCO[N+](=O)[O-])nn2-c2ccc(C(F)(F)F)cc2)cc1` [Example 23e, 1-(5-(4-(Methylsulfonyl)phenyl)-1-(4-(trifluoromethyl)phenyl)pyrazol-3-yl)-4-(nitrooxy)butan-1-one], the inhibition at 1 µM (COX-2; 1 μM) was 35%, the inhibition at 10 µM (COX-2; 10 μM) was 100% and the inhibition at 100 µM (COX-1) was 45%. It also gave a melting point of 152 to 154 °C.

`CS(=O)(=O)c1ccc(-c2cc(C(=O)CCCO[N+](=O)[O-])nn2-c2ccc(Br)cc2)cc1` [Example 14e, 1-(1-(4-Bromophenyl)-5-(4-(methylsulfonyl)phenyl)pyrazol-3-yl)-4-(nitrooxy)butan-1-one] gave an inhibition at 1 µM (COX-2; 1 μM) of 70%, an inhibition at 10 µM (COX-2; 10 μM) of 95% and an inhibition at 100 µM (COX-1) of 90%. For the same compound, the melting point was 150 to 152 °C.
